Source: article PMC8632988, “Inhibition of SYK and cSrc kinases can protect bone and cartilage in preclinical models of osteoarthritis and rheumatoid arthritis” (Scientific Reports, 2021)
“And” between values parts separate entries of the source, which are not always exact repeats. Equal entries are not always repeated.

Tested on: human osteoclasts
Assay: Osteoclast-mediated resorption of the mineralized matrix
Type: cell-based
Design: Ratio %: unit not given here
Conditions: for Ratio %: vehicle average = 1.000
Protocol: The experiment was performed at Atlantic Bone Screen (France) and approved by Atlantic Bone Screen ethics committee. Human CD14 + monocytes were isolated from peripheral blood of healthy volunteers (informed consent was obtained from all subjects) using density gradient centrifugation (Ficoll-Hypaque) and magnetic cell sorting (MACS, MiltenyiBiotec). CD14 + monocytes (1.5 × 10^6 cells/well) were cultured for three days in proliferation medium (αMEM/FCS-10% supplemented with 25 ng/mL M-CSF), inducing proliferation and expression of RANK. Secondly, the cells were differentiated into osteoclasts in differentiation medium supplemented with 100 ng/mL RANKL for 4 days. Osteoclasts were detached from the wells using accutase, the cell suspension was homogenized and cells (75 μL/well) were reseeded into: (a) a 96-well plate coated with a synthetic mineralized matrix for an evaluation of osteoclast resorption, or (b) a classic 96-well plastic culture plate, for an assessment of osteoclast number. 75 μL of differentiation medium containing M-CSF and RANKL (at a 2 × concentration) was added to each well. The cells were incubated for an hour and were cultured for 48 h in the fresh differentiation medium supplemented with MT-SYK-03 or vehicle (DMSO, 0.3%). All treatments were carried out in quadruple. Then the cell medium was removed, cells were lysed and the surface of the resorbed areas of the mineralized matrix was quantified in each well. TRAP staining was performed for cells in a classic plastic plate and the number of mature osteoclasts (TRAP-positive cells with three or more nuclei) was determined in each well. Reconstruction of images and osteoclast count was performed using Nikon NIS-D software.

[1] = MT-SYK-03 0.12 μM, individual wells
[2] = MT-SYK-03 0.37 μM, individual wells
[3] = MT-SYK-03 3.3 μM, individual wells
[4] = MT-SYK-03 10 μM, individual wells

With `COc1cc(Nc2ncnc(Nc3cc4c(cn3)NC(=O)C(C)(C)O4)n2)cc(OC)c1OC` [MT-SYK-03] the Relative resorbed surface (10 μM, 48 h, versus vehicle control) was “more than threefold”, the “Ratio resorption/Nb OC” value (MT-SYK-03 0.12 μM, Average) was 0.079 and the “Resorption, % resorption” value (MT-SYK-03 0.12 μM, Average) was 31.78%. For the same compound, the “TRAP, Number of osteoclasts (Nb OC)” value (MT-SYK-03 0.12 μM, Average) was 405, the Ratio % (MT-SYK-03 0.12 μM, Average) was 1.001 and the “Ratio resorption/Nb OC” value [1] was 0.088 and 0.075 and 0.085 and 0.067. The “Resorption, % resorption” value [1] was 34.41% and 30.62% and 34.06% and 28.02%, the “TRAP, Number of osteoclasts (Nb OC)” value [1] was 389 and 408 and 402 and 419 and the “Ratio resorption/Nb OC” value (MT-SYK-03 0.37 μM, Average) was 0.062. The “Resorption, % resorption” value (MT-SYK-03 0.37 μM, Average) was 26.43%, the “TRAP, Number of osteoclasts (Nb OC)” value (MT-SYK-03 0.37 μM, Average) was 422 and the Ratio % (MT-SYK-03 0.37 μM, Average) was 0.789. The “Ratio resorption/Nb OC” value [2] was 0.084 and 0.065 and 0.069 and 0.031, the “Resorption, % resorption” value [2] was 33.11% and 27.51% and 32.94% and 12.15% and the “TRAP, Number of osteoclasts (Nb OC)” value [2] was 394 and 426 and 478 and 391. For the same compound, the “Ratio resorption/Nb OC” value (MT-SYK-03 3.3 μM, Average) was 0.015, the “Resorption, % resorption” value (MT-SYK-03 3.3 μM, Average) was 2.81% and the “TRAP, Number of osteoclasts (Nb OC)” value (MT-SYK-03 3.3 μM, Average) was 196. For the same compound, the Ratio % (MT-SYK-03 3.3 μM, Average) was 0.197, the “Ratio resorption/Nb OC” value [3] was 0.014 and 0.025 and 0.011 and 0.012 and the “Resorption, % resorption” value [3] was 2.31% and 3.40% and 2.62% and 2.91%. The “TRAP, Number of osteoclasts (Nb OC)” value [3] was 165 and 136 and 247 and 235, the “Ratio resorption/Nb OC” value (MT-SYK-03 10 μM, Average) was 0.004 and the “Resorption, % resorption” value (MT-SYK-03 10 μM, Average) was 1.53%. The “TRAP, Number of osteoclasts (Nb OC)” value (MT-SYK-03 10 μM, Average) was 8, the Ratio % (MT-SYK-03 10 μM, Average) was 0.044 and the “Ratio resorption/Nb OC” value [4] was 0.016 and 0.024 and 0.023 and 0.028. The “Resorption, % resorption” value [4] was 5.87% and 9.73% and 8.76% and 11.00% and 8.84% and the “TRAP, Number of osteoclasts (Nb OC)” value [4] was 371 and 402 and 388 and 390.
